Common to all, as to assay: microbe, parasite or virus in culture
Format in all cases: cell-based

In one assay the test system is vaccinia virus. Conditions: Orthopoxvirus vaccinia, read-out: Avg Activity (VV).
Another assay deals with La Crosse virus (LACV). To be noted: La Crosse virus, Vero, read-out: Avg Activity (LACV).
For another assay, the system named is Chlamydophila caviae. Conditions: Chlamydia caviae, Vero, read-out: Avg Activity (C. Caviae).

Structures are written as SMILES. pEC50: −log10 of the molar value. Where a name gives a salt, the structure may show the parent alone.

With `CC(C)(C)c1ccc(C(=O)NC(=S)Nc2ccc(NC(=O)c3ccccc3Cl)c(O)c2)cc1` [Compound 2, N-[4-[(4-tert-butylbenzoyl)-carbamothioylamino]-2-hydroxy-phenyl]-2-chloro-benzamide], the pEC50 in the assay with vaccinia virus, in the assay on La Crosse virus (LACV) and in the assay with Chlamydophila caviae was more than 6.00 throughout.
For `COc1cc(NC(=S)NC(=O)c2ccc(C(C)(C)C)cc2)ccc1N(C)c1ccccc1Cl` [Compound 3, 4-tert-butyl-N-[[4-[(2-chlorophenyl)-methylamino]-3-methoxy-phenyl]-carbamothioyl]-benzamide], the pEC50 in the assay on vaccinia virus, with La Crosse virus (LACV) and in the assay on Chlamydophila caviae was more than 6.00 in each case.
Regarding `CC(C)(C)c1ccc(C(=O)NC(=S)Nc2ccc(N)cc2Cl)cc1` [Compound 4, N-[(4-amino-2-chloro-phenyl)carbamothioyl]-4-tert-butyl-benzamide hydrochloride], the pEC50 with vaccinia virus, in the assay with La Crosse virus (LACV) and in the assay with Chlamydophila caviae was more than 6.00 throughout.
For the compound `CNc1ccc(NC(=S)NC(=O)c2ccc(C(C)(C)C)cc2)c(Cl)c1` [Compound 5, 4-tert-butyl-N-[[2-chloro-4-(methylamino)phenyl]-carbamothioyl]benzamide hydrochloride], the pEC50 in the assay on vaccinia virus, with La Crosse virus (LACV) and with Chlamydophila caviae was more than 6.00 in each case.
Regarding `CC(C)(C)c1ccc(C(=O)NC(=S)Nc2ccc(NC(=O)c3ccccc3)cc2Cl)cc1` [Compound 7, N-[(4-benzamido-2-chloro-phenyl)carbamothioyl]-4-tert-butyl-benzamide], the pEC50 in the assay on vaccinia virus, with La Crosse virus (LACV) and with Chlamydophila caviae was more than 6.00 in each case.
`COc1cc(NC(=S)NC(=O)c2ccc(C(C)(C)C)cc2)ccc1NC(=S)c1ccccc1Cl` [Compound 8, 4-tert-butyl-N-[[4-[(2-chlorobenzene-carbothioyl)amino]-3-methoxy-phenyl]-carbamothioyl]benzamide]: the pEC50 in the assay with vaccinia virus, in the assay on La Crosse virus (LACV) and with Chlamydophila caviae was more than 6.00 in each case.
Turning to `CCS/C(=N\C(=O)c1ccc(C(C)(C)C)cc1)Nc1cc(C)ccc1Cl` [Compound 9, (NZ)-4-tert-butyl-N-[(2-chloro-5-methyl-anilino)-ethylsulfanyl-methylene]benzamide], the pEC50 in the assay with vaccinia virus, in the assay with La Crosse virus (LACV) and in the assay on Chlamydophila caviae was more than 6.00 each time.
`CCS/C(=N\C(=O)c1ccc(C(C)(C)C)cc1)Nc1ccc(NC(=O)c2ccccc2Cl)c(OC)c1` [Compound 10, N-[4-[[(Z)—N-(4-tert-butylbenzoyl)-C-ethylsulfanyl-carbonimidoyl]amino]-2-methoxy-phenyl]-2-chloro-benzamide]: the pEC50 was more than 6.00 with vaccinia virus, more than 6.00 in the assay on La Crosse virus (LACV) and 5.00 to 6.00 with Chlamydophila caviae.
For the compound `COc1cc(NC(=S)NC(=O)c2ccc(C(C)(C)C)cc2)ccc1NC(=O)c1ccc(CN)cc1` [Compound 12, hydrochloride], the pEC50 is more than 6.00 with vaccinia virus, less than 4.60 in the assay with La Crosse virus (LACV) and more than 6.00 with Chlamydophila caviae.
Consider `Cc1cccc(Cl)c1NC(=S)NC(=O)c1ccc(C(C)(C)C)cc1` [Compound 13, 4-tert-butyl-N-[(2-chloro-6-methyl-phenyl)-carbamothioyl]benzamide], for which the pEC50 with vaccinia virus is 5.00 to 6.00; in the assay with La Crosse virus (LACV), more than 6.00; in the assay with Chlamydophila caviae, more than 6.00.
Turning to `CCS/C(=N\C(=O)c1ccc(C(C)(C)C)cc1)Nc1ccccc1Cl` [Compound 14, (NZ)-4-tert-butyl-N-[(2-chloroanilino)-ethylsulfanyl-methylene]benzamide], the results for the pEC50 in the assay with vaccinia virus, with La Crosse virus (LACV) and in the assay with Chlamydophila caviae were 5.00 to 6.00, more than 6.00 and more than 6.00, respectively.
Turning to `CC(C)(C)c1ccc(C(=O)NC(=S)Nc2cccc(C(F)(F)F)c2Cl)cc1` [Compound 15, 4-tert-butyl-N-[[2-chloro-3-(trifluoromethyl)phenyl]-carbamothioyl]benzamide], the pEC50 with vaccinia virus was 5.00 to 6.00; in the assay with La Crosse virus (LACV), more than 6.00; in the assay with Chlamydophila caviae, more than 6.00.
For `COc1cc(NC(=S)NC(=O)c2ccc(C(C)(C)C)cc2)ccc1NS(=O)(=O)c1cccc2c(N(C)C)cccc12` [Compound 16, 4-tert-butyl-N-[[4-[[5-(dimethylamino)-1-naphthyl]sulfonylamino]-3-methoxy-phenyl]-carbamothioyl]benzamide], the pEC50 was 5.00 to 6.00 in the assay with vaccinia virus, 5.00 to 6.00 with La Crosse virus (LACV) and more than 6.00 in the assay on Chlamydophila caviae.
With `Cc1cccc(NC(=S)NC(=O)c2ccc(C(C)(C)C)cc2)c1Cl` [Compound 19, 4-tert-butyl-N-[(2-chloro-3-methyl-phenyl)-carbamothioyl]benzamide], the figures for the pEC50 in the assay with vaccinia virus, in the assay with La Crosse virus (LACV) and in the assay with Chlamydophila caviae were 5.00 to 6.00, 5.00 to 6.00 and more than 6.00, respectively.
On to `CN(C)c1ccc(NC(=S)NC(=O)c2ccc(C(C)(C)C)cc2)c(Cl)c1` [Compound 22, 4-tert-butyl-N-[[2-chloro-4-(dimethylamino)phenyl]-carbamothioyl]benzamide hydrochloride], for which the pEC50 was 5.00 to 6.00 in the assay on vaccinia virus, 5.00 to 6.00 in the assay on La Crosse virus (LACV) and more than 6.00 in the assay on Chlamydophila caviae.
On to `COc1cc(NC(=S)NC(=N)c2ccc(C(C)(C)C)cc2)ccc1NC(=O)c1ccccc1Cl` [Compound 23, N-[4-[(4-tert-butylbenzene-carboximidoyl)-carbamothioylamino]-2-methoxy-phenyl]-2-chloro-benzamide], for which the results for the pEC50 with vaccinia virus, in the assay on La Crosse virus (LACV) and in the assay on Chlamydophila caviae were 5.00 to 6.00, 5.00 to 6.00 and more than 6.00, respectively.
As for `COc1cc(NC(=S)NC(=O)c2ccc(C(C)(C)C)cc2)ccc1NC(=N)c1ccccc1Cl` [Compound 24, 4-tert-butyl-N-[[4-[(2-chlorobenzene-carboximidoyl)amino]-3-methoxy-phenyl]-carbamothioyl]benzamide], the values for the pEC50 in the assay on vaccinia virus, in the assay on La Crosse virus (LACV) and in the assay with Chlamydophila caviae were 5.00 to 6.00, 5.00 to 6.00 and more than 6.00, respectively.
For the compound `COc1cc(NC(=S)NC(=O)c2ccc(C(C)(C)C)cc2)ccc1NC(=O)CCCCC1SCC2NC(=O)NC21` (centres unmarked) [Compound 25, 4-tert-butyl-N-[[3-methoxy-4-[5-(2-oxo-1,3,3a,4,6,6a-hexahydrothieno[3,4-d]imidazol-4-yl)-pentanoylamino]phenyl]-carbamothioyl]benzamide], the pEC50 with vaccinia virus was 5.00 to 6.00; with La Crosse virus (LACV) it was less than 4.60; in the assay with Chlamydophila caviae, 5.00 to 6.00.
As for `CC(C)(C)c1ccc(C(=O)NC(=S)Nc2cc(OC(F)(F)F)ccc2Cl)cc1` [Compound 29, 4-tert-butyl-N-[[2-chloro-5-(trifluoromethoxy)phenyl]-carbamothioyl]benzamide], the results for the pEC50 in the assay on vaccinia virus and in the assay with La Crosse virus (LACV) were 5.00 to 6.00 and less than 4.60, respectively.
`COc1cc(NC(=S)NC(=O)c2ccc(C(C)(C)C)cc2)ccc1NC(=O)c1cccnc1` [Compound 30, N-[4-[(4-tert-butylbenzoyl)-carbamothioylamino]-2-methoxy-phenyl]pyridine-3-carboxamide]: the pEC50 was 5.00 to 6.00 with vaccinia virus and more than 6.00 in the assay on Chlamydophila caviae.
Take `COc1cc(NC(=S)NC(=O)c2ccc(C(C)(C)C)cc2)ccc1NC(=O)c1ccncc1` [Compound 31, N-[4-[(4-tert-butylbenzoyl)-carbamothioylamino]-2-methoxy-phenyl]pyridine-4-carboxamide]: the pEC50 with vaccinia virus is 5.00 to 6.00; in the assay with Chlamydophila caviae, more than 6.00.
In the case of `COc1cc(NC(=S)NC(=O)c2ccc(C(C)(C)C)cc2)ccc1NC(N)=O` [Compound 37, 4-tert-butyl-N-[(3-methoxy-4-ureido-phenyl)carbamothioyl]-benzamide], the pEC50 in the assay with vaccinia virus is less than 4.60; in the assay with La Crosse virus (LACV), 5.00 to 6.00.

For the origin of these results see patent US9566254B2, “Inhibitors and methods of inhibiting bacterial and viral pathogens” (priority 2010, dated 2017).
